One experiment relates to PPAR-γ expression. Briefly: Larval diabetic zebrafish assay, Western blot of PPAR-γ. It is filed as in vivo. The note with it: diabetic zebrafish larvae, 10 μM. On the procedure: Western blot analysis of zebrafish expression levels for glycated hemoglobin, metabolic enzymes, and molecular targets NFκB and PPAR-γ was performed to evaluate potential lead improvement and to discover possible mechanisms of action.
Wild-type zebrafish were sorted into 24-well microplates with 10 fish per well for a four-phase treatment cycle. At 72 hpf, type 2 diabetes was induced by administering 0.5 mg/mL alloxan in fish water for percutaneous absorption. […] At 78 hpf, the incubation solution was changed to 10 mg/ml D-glucose for 30 minutes, followed by a phase-four rinse in fresh system w Following the four-phase treatment cycle, zebrafish treatment groups were snap frozen in microcentrifuge tubes on dry ice, stored overnight at −80° C., thawed, and homogenized with 2 μL PBS per animal. Following centrifugation (60 minutes at 4° C. and 17,000 rpm), protein content of the homogenate supernatant was determined using the Pierce BCA Protein Assay kit (Pierce Biotechnology). Homogenates were analyzed by Western blot with equal amounts of total protein (20 μg) in each sample and using 4×LDS loading buffer (NuPAGE Life Technologies).
(§1) Electrophoresis was performed with NuPAGE MES SDS Running Buffer and using the XCell SureLock Mini-Cell Electrophoresis System (Life Technologies). Proteins separated on the gel were transferred to a PVDF membrane using TBST buffer. The blots were blocked in 3% BSA in TBST and subsequently probed overnight with primary antibodies (1:1000 in 1% BSA in TBST) against each target of interest. Following TBST rinses, secondary HRP-conjugated antibodies (1:2000) were applied to the membrane for 60 minutes. The HRP conjugated antibodies were detected using SuperSignal West Femto chemiluminescent substrate (Pierce Biotechnology) and immunoblot images were captured using the luminometer and Lumi Analyst 3.0 software.
(§2) Band densities were determined using ImageJ Gel Analysis to determine expression levels of each protein of interest. Expression levels of HbA1C, PPAR-γ, and NFκB were organized into a bar graphs (FIG. 5) with band densities calculated in comparison to the housekeeping gene β-actin, normalized to the untreated diabetic group (B) of zebrafish. […].

The next experiment concerns the target T1, PPAR-γ (Homo sapiens, UniProt P37231).
T1 construct: endogenous in cells; host or cells: CCD-112CoN normal colon cells or HeLa cells (ATCC), nuclear extract
T1 sequence (P37231 1-505): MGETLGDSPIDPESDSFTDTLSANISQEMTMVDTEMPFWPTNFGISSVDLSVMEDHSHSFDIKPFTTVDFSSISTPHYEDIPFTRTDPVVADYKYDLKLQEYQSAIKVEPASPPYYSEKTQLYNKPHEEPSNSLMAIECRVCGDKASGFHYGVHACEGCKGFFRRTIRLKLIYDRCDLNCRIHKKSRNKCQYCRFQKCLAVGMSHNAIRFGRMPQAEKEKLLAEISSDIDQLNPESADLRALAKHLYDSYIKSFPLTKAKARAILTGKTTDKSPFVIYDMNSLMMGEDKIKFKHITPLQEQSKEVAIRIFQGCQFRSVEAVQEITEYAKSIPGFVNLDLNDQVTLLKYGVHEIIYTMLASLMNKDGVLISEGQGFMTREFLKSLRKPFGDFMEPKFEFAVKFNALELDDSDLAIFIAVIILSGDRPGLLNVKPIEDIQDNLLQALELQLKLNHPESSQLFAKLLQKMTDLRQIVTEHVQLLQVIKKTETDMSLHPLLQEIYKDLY
Briefly: PPAR-γ ELISA assay (PPAR-α,γ,δ Complete Transcription Factor Assay Kit; CCD-112CoN or Hela cells, nuclear extracts). The class given is cell-based. On the procedure: To evaluate the ability of natural product extracts and compounds to induce specific binding of PPAR-γ transcription factor in nuclear extracts to immunosorbed peroxisome proliferator response element, the PPAR-α,γ,δ Complete Transcription Factor Assay Kit (Cayman Chemical Company) was used according to the kit protocol. 303 CCD-112CoN normal colon cells or Hela cells (ATCC) were treated with mace extracts or isolated compounds for 24 h, nuclear extracts were harvested using the NE-PER kit (Pierce Biotechnology), and protein content equilibrated using the Pierce BCA Protein Assay kit (Pierce Biotechnology). Specific binding was detected through quantification of absorptivity at 630 nm in a BioTek uQuant microplate reader (BioTek Instruments, Inc.). […] Licarin A derivatives 45-48 were screened through the panel of in vitro assays to evaluate their potential as antidiabetic compound leads. […] Methods for the assay were as described above.
In general terms: In an ELISA, binding on a coated surface is turned into a signal by an enzyme label.

The target in a further experiment is T2, NFκB (Homo sapiens, UniProt Q04206).
T2 construct: endogenous in cells; host or cells: HeLa cells (ATCC), nuclear extract
Briefly: NFκB assay (EZ-Detect Transcription Factor Assay kit; TNF-α-treated HeLa cells, nuclear extracts). It is filed as cell-based. As to the method: To assess the ability of natural product extracts and compounds to inhibit the specific binding of activated NFκB transcription factor to the biotinylated consensus sequence, the EZ-Detect™ Transcription Factor Assay kit (Pierce Biotechnology) was used according to the kit manual and established protocol. HeLa cells (ATCC) were treated with each test sample and TNF-α, nuclear extracts harvested using the NE-PER kit (Pierce Biotechnology), and protein content equilibrated using the Pierce BCA Protein Assay kit (Pierce Biotechnology). Specific binding was detected through quantification of chemiluminescent signal in a plate reader (FLUOstar Optima, BMG Labtechnologies GmbH, Inc.).

The next experiment concerns PEPCK expression. Briefly: Larval diabetic zebrafish assay, Western blot of PEPCK. The class given is in vivo. The note with it: duplicate Western blot (FIG. 10), diabetic zebrafish larvae, 10 μM. On the procedure:
(§3) Following isolation, derivatization, and analysis of compounds 41-48 through the in vitro panel of assays, the mace natural products and licarin A derivatives were investigated in the larval diabetic zebrafish assay for potential antidiabetic activity. Western blot analysis of zebrafish expression levels for glycated hemoglobin, metabolic enzymes, and molecular targets NFκB and PPAR-γ was performed to evaluate potential lead improvement and to discover possible mechanisms of action.
(§4) Wild-type zebrafish were sorted into 24-well microplates with 10 fish per well for a four-phase treatment cycle. At 72 hpf, type 2 diabetes was induced by administering 0.5 mg/mL alloxan in fish water for percutaneous absorption. After three hours of alloxan treatment, phase two of the treatment cycle was initiated by administering 10 μM doses of natural product compounds 41-43 (FIG. 4) or derivatives 45-48 (FIG. 6) with 0.01% DMSO in system water. At 78 hpf, the incubation solution was changed to 10 mg/ml D-glucose for 30 minutes, followed by a phase-four rinse in fresh system w Following the four-phase treatment cycle, zebrafish treatment groups were snap frozen in microcentrifuge tubes on dry ice, stored overnight at −80° C., thawed, and homogenized with 2 μL PBS per animal. Following centrifugation (60 minutes at 4° C. and 17,000 rpm), protein content of the homogenate supernatant was determined using the Pierce BCA Protein Assay kit (Pierce Biotechnology). Homogenates were analyzed by Western blot with equal amounts of total protein (20 μg) in each sample and using 4×LDS loading buffer (NuPAGE Life Technologies). The immunoblot samples were heated at 95° C. for 5 minutes and loaded onto NuPAGE Bis-Tris 4-12% gradient SDS-PAGE gels.
as §1, §2

Experiment [1] has as its system HbA1C (glycated hemoglobin) expression. Briefly: Larval diabetic zebrafish assay, Western blot of HbA1C. It is filed as in vivo. The following applies: duplicate Western blot (FIG. 7), diabetic zebrafish larvae, 10 μM. As to the method:
as §3, §4, §1, §2

The subject of a further experiment is NFκB p65 expression. Briefly: Larval diabetic zebrafish assay, Western blot of NFκB p65. The note with it: duplicate Western blot (FIG. 9), diabetic zebrafish larvae, 10 μM. It is filed as in vivo. As to the method: as §3
Wild-type zebrafish were sorted into 24-well microplates with 10 fish per well for a four-phase treatment cycle. […] Following centrifugation (60 minutes at 4° C. and 17,000 rpm), protein content of the homogenate supernatant was determined using the Pierce BCA Protein Assay kit (Pierce Biotechnology). Homogenates were analyzed by Western blot with equal amounts of total protein (20 μg) in each sample and using 4×LDS loading buffer (NuPAGE Life Technologies). […]
Electrophoresis was performed with NuPAGE MES SDS Running Buffer and using the XCell SureLock Mini-Cell Electrophoresis System (Life Technologies). […] The HRP conjugated antibodies were detected using SuperSignal West Femto chemiluminescent substrate (Pierce Biotechnology) and immunoblot images were captured using the luminometer and Lumi Analyst 3.0 software. […]
(In western blotting, separated proteins are transferred to a membrane and probed.)

A further experiment concerns GLUT-4 expression. Briefly: Larval diabetic zebrafish assay, Western blot of GLUT-4. The class given is in vivo. The following applies: duplicate Western blot (FIG. 11), diabetic zebrafish larvae, 10 μM. As to the method: as §3
Wild-type zebrafish were sorted into 24-well microplates with 10 fish per well for a four-phase treatment cycle. At 72 hpf, type 2 diabetes was induced by administering 0.5 mg/mL alloxan in fish water for percutaneous absorption. After three hours of alloxan treatment, phase two of the treatment cycle was initiated by administering 10 μM doses of natural product compounds 41-43 (FIG. 4) or derivatives 45-48 (FIG. 6) with 0.01% DMSO in system water. […] Following centrifugation (60 minutes at 4° C. and 17,000 rpm), protein content of the homogenate supernatant was determined using the Pierce BCA Protein Assay kit (Pierce Biotechnology). Homogenates were analyzed by Western blot with equal amounts of total protein (20 μg) in each sample and using 4×LDS loading buffer (NuPAGE Life Technologies). […]
Electrophoresis was performed with NuPAGE MES SDS Running Buffer and using the XCell SureLock Mini-Cell Electrophoresis System (Life Technologies). […] The HRP conjugated antibodies were detected using SuperSignal West Femto chemiluminescent substrate (Pierce Biotechnology) and immunoblot images were captured using the luminometer and Lumi Analyst 3.0 software.
as §2

Setting [2] is: Table 13, tested at 50, 5, 0.5 and 0.05 μg/mL.
Where [3] appears, read: Table 20 summary, read-out: NFκBIC50.
Where [4] appears, read: Table 19, licarin A derivatives at 50 μg/mL in Hela cells.

“Also recorded” adds a separate entry of the source. Like-named read-outs stand apart in the source and are kept apart here.

T2 sequence (Q04206 whole entry): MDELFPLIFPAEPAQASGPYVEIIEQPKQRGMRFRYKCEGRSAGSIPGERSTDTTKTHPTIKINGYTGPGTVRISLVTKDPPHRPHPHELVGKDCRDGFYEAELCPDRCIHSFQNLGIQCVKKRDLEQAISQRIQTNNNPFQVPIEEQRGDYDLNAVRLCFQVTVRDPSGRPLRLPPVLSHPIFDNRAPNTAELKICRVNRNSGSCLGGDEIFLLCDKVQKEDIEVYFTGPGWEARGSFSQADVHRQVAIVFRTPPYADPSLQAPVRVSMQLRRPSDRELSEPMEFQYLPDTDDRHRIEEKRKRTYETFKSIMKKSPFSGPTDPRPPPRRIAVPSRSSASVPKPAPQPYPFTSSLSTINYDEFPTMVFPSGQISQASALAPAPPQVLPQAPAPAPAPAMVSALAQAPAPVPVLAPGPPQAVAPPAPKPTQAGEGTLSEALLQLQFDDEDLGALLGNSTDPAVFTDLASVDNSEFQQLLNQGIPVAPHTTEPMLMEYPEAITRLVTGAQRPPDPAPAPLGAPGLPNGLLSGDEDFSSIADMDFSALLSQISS

For `C=CCc1cc(OC)c(O[C@H](C)[C@@H](O)c2ccc3c(c2)OCO3)c(OC)c1` [Compound 43, erythro-8,4′-oxyneolign-8′-ene], the “PPAR-γ expression (band density)” value in the experiment on PPAR-γ expression (preliminary Western blot (FIG. 4/5)) was “greater PPAR-γ expression that 41”. The PPAR-γ % activation on PPAR-γ (Table 14, isolates at 50 μg/mL) is on record as under 50%; on PPAR-γ (Table 20 summary, 50 μg/mL), under 50%. Further, the IC50 against NFκB (setting [2]), on NFκB (setting [3]) and on NFκB (in vitro NFκB assay) was 64.4 nM in each case.

In the case of `C/C=C/c1ccc(O[C@H](C)[C@@H](OC(C)=O)c2ccc3c(c2)OCO3)c(OC)c1` [Compound 44, maceneolignan J], the IC50 at NFκB (setting [2]), on NFκB (setting [3]) and against NFκB (in vitro NFκB assay) was 0.1 nM in each case.

Consider `C/C=C/c1cc(OC)c2c(c1)[C@H](C)[C@@H](c1ccc(OC(C)C)c(OC)c1)O2` [Compound 45, isopropoxy-licarin A], for which the “PEPCK expression (band density)” value in the experiment with PEPCK expression is given as “indicated a return to normoglycemia”. The PPAR-γ % activation on PPAR-γ (setting [4]) stood at 57%; at PPAR-γ (Table 20 summary, 50 μg/mL) it was 57%. Moreover, in experiment [1], the “HbA1C expression (band density)” value is given as “did not reduce HbA1C expression”.

With `COc1cc([C@H]2Oc3c(OC)cc(C=O)cc3[C@@H]2C)ccc1OC(C)C` [Compound 46, isopropoxy-licarin A carbaldehyde], the “PEPCK expression (band density)” value with PEPCK expression is “indicated a return to normoglycemia”. In addition, in the experiment with NFκB p65 expression, the “NFκB p65 expression (band density)” value is listed as “lower levels of NFκB”. Further, the PPAR-γ % activation on PPAR-γ (setting [4]) was 29%; on PPAR-γ (Table 20 summary, 50 μg/mL), 29%. Further, the “PPAR-γ activity in vitro” value on PPAR-γ (preliminary screening, 50 μg/mL) is on record as “no significant PPAR-γ activity in vitro”. Further, the “HbA1C expression (band density)” value in experiment [1] is given as “most effective test samples for decreasing HbA1C; also recorded: significant reduction of HbA1C expression”.

`C/C=C/c1cc(OC)c2c(c1)[C@H](C)[C@@H](c1ccc(OC(=O)OCC)c(OC)c1)O2` [Compound 47, licarin A ethyl carbonate]: the “PEPCK expression (band density)” value in the experiment with PEPCK expression was “retained low PEPCK expression”. Further, the “PPAR-γ expression (band density)” value in the experiment on PPAR-γ expression (duplicate Western blot (FIG. 8)) was “performed surprisingly well”. Besides, the PPAR-γ % activation on PPAR-γ (setting [4]) stood at 0%; on PPAR-γ (Table 20 summary, 50 μg/mL), 0%. Further, in experiment [1], the “HbA1C expression (band density)” value was “did not reduce HbA1C expression”. In addition, the “NFκB inhibitory activity in vitro” value at NFκB (HeLa cells) is recorded as “only weak NFκB inhibitory activity”. Also, in the experiment on GLUT-4 expression, the “GLUT-4 expression (band density)” value is given as “significantly increased capacities for glucose uptake”.

For `CCOC(=O)Oc1ccc([C@H]2Oc3c(OC)cc(C=O)cc3[C@@H]2C)cc1OC` [Compound 48, licarin A formyl ethyl carbonate], in the experiment with PEPCK expression, the “PEPCK expression (band density)” value was “retained low PEPCK expression”. Besides, the “NFκB p65 expression (band density)” value in the experiment with NFκB p65 expression is “lower levels of NFκB”. Besides, the PPAR-γ % activation at PPAR-γ (setting [4]) is 0%; at PPAR-γ (Table 20 summary, 50 μg/mL), 0%. For the same molecule, the “HbA1C expression (band density)” value in experiment [1] is recorded as “did not reduce HbA1C expression”. For the same molecule, in the experiment with GLUT-4 expression, the “GLUT-4 expression (band density)” value was “significantly increased capacities for glucose uptake”.

For the origin of these results see patent US20250011296A1, “MODULATORS OF MOLECULAR TARGETS EXPRESSED IN METABOLIC AND INFLAMMATORY DISORDERS” (Ohio State Innovation Foundation, priority 2021, published 2025).
